Among the data in ChEMBL document CHEMBL3046690, “Identification of an ISR-related metabolite produced by rhizobacterium Klebsiella oxytoca C1036 active against soft-rot disease pathogen in tobacco” (Pest Manag Sci, 2009) are Activity values, retold here.

Molecules are shown by their SMILES. Active and inactive are the calls of the source. No cut-off for these calls is given here.

The test system of experiment [1] is Nicotiana tabacum. Nature of the experiment: Induction of systemic resistance (ISR) activity in Nicotiana tabacum (tobacco) seedlings against pectobacterium carotovorum subsp. carotovorum SCC1 assessed as decrease in disease symptoms on leaves at 12 mM applied to roots prior to leaf infection with SCC1 measured at 3 days after pathogen challenge. The class given is functional, organism-based.

Experiment [2] deals with Nicotiana tabacum. As to the kind of experiment: Induction of systemic resistance (ISR) activity in Nicotiana tabacum (tobacco) seedlings against pectobacterium carotovorum subsp. carotovorum SCC1 assessed as decrease in disease symptoms on leaves applied to roots prior to leaf infection with SCC1 measured at 3 days after pathogen challenge. Type of experiment: functional, organism-based.

Take `CCCCOC(=O)C1CCC(=O)N1` (configuration not stated): the outcome in experiment [1] was Active.

Turning to `CCCCOC(=O)[C@@H]1CCC(=O)N1`, the outcome in experiment [2] was Active.
